Experimental findings from patent US10857128B2, “Methods and compositions for treating inflammatory diseases” (Helmholtz Zentrum München Deutsches Forschungszentrum für …, priority 2017, dated 2020) are described below.

Assay [1] has as its system CCL17 secretion of human Hodgkin lymphoma KM-H2 cells. In words: CCL17 secretion bioassay with KM-H2 cells (ELISA). The class given is cell-based. The note with it: different concentrations, 24 h. The procedure:
Human T cell line KM-H2. The human Hodgkin lymphoma T cell line (KM-H2) was purchased from the Leibniz Institute DSMZ-German Collection of Microorganisms and Cell Cultures, Braunschweig, Germany. 3-5×10^6 KM-H2 cells were grown in 4 mL RPMI 1640 per well in 6-well-plates (Nunc, Wiesbaden, Germany). All eukaryotic cells were cultured in 5% CO2 at 37° C. (HeraCell 240 and Heraeus BDD 6220, Thermo Fisher Scientific, Waltham, USA). Viability of cells after treatment with bacterial supernatants was assessed by trypan blue, 7-AAD and CellTiter-Blue® staining. (FIG. 9A-C)
Quantification of CCL17 and cytokines in eukaryotic cell culture supernatants. CCL17 was quantified in cell culture supernatants of KM-H2 cells using ELISA reagent Quantikine CCL17/TARC, (R&D Systems, Minneapolis, USA) according to the manufacturer's instructions (ELISA reader MRXII, Thermo Fisher Scientifc, Waltham, USA).
Bioassays for screening for immune modulatory activity in probiotic supernatants. Two biological assays based on down-modulation of costimulatory molecules on human DCs, and of CCL17-secretion by a human Hodgkin lymphoma T cell line (KM-H2) were set up. […]
Similarly, 200 μL supernatants were added to 3-5×10^6 KM-H2 cells for 24 h. Supernatants were collected from KM-H2 by centrifugation and stored at −80° C. until quantification of CCL17. […]

The test system of assay [2] is human LPS treated DCs. In words: Cytokine secretion of human DCs (multiplex assay). The format is cell-based. The note with it: for IFN-g / IL-5 / IL-10 / IL-12: 200 μl supernatant or amino acid 10 μM, 14 h. On the procedure:
Peripheral blood mononuclear cells (PBMC) were isolated from heparinized whole blood by density gradient centrifugation (2000 rpm, 22° C., 20 min) (Biocoll, Biochrom AG, Berlin, Germany). […] Purity and viability of DCs was assessed by flow cytometry (FIG. 9A-C).
[…] For probiotic supernatants, blank CDM1 was used as medium control. […] IL-5, IFN-gamma, IL-12, and IL-10, were quantified by a multiplex assay (Milliplex Human Cytokine Immunoassay, Millipore GMbH Schalbach, Germany) as described by the manufacturer.

Assay [3] concerns murine naïve CD4+ T cells. In words: In vitro differentiation of murine primary T cells (Th1, Th2, Treg). The class given is cell-based, Balb/c mice. The note with it: 10 or 50 μM D-Trp. From the text:
Differentiation of murine primary T cells. Murine spleens from female Balb/c mice were filtered through a 40 μm filter to generate single cell suspensions. These were then subjected to red blood cell lysis by using RBC lysis buffer (Biolegend, San Diego, USA) according to the manufacturer's recommendations. Afterwards, naïve CD4^+ T cells were isolated via magnetic-activated cell sorting (MACS) using the naïve CD4^+ T cell isolation kit (Miltenyi Biotec, Bergisch-Gladbach, Germany). The resulting naïve CD4^+ T cells were cultured in 96 wells plates (1×10^6 cells/ml Medium) in TexMACS medium supplemented with 10% FCS, 0.01 mM 2-Mercaptoethanol, rIL-2 (10 ng/ml) as well as MACSiBead particles with anti-CD3 and anti-CD28 (1×10^6 beads per 1×10^6 cells) (all Miltenyi Biotec). Cells were differentiated over a period of 6 days towards Th1 (10 ng/ml IL12 and 10 μg/ml anti-IL4, derived from Cytobox Th1), Th2 (10 ng/ml II4 and 10 μg/ml anti-Ifnγ, derived from Cytobox Th2) and Treg (5 ng/ml) (all Miltenyi Biotec). Differentiation of cells was assessed by flow cytometry (see FIG. 15 for gating strategy), enhanced cytometric bead array (CBA) from cell culture supernatants and qRT-PCR. Prior to CBA and flow cytometry, cells were stimulated with monensin (0.7 μL/mL, BD Golgi Stop, BD Bioscience, Heidelberg, Germany) for 4 h at 37° C. in the prescence of lonomycin (500 ng/ml, Sigma Aldrich, Missouri, USA) and PMA (5 ng/ml, Sigma Aldrich, Missouri, USA).
Assessment of cytokines by cytometric bead array. Levels of II4, II5 and II13 were analysed in BALF and cell culture supernatants using an enhanced cytometric bead array (eCBA, Fex Set Kits, BD Biosciences, Franklin Lakes, N.J., USA) according to the manufacturer's guidelines.
Gene expression analysis. Total RNA was isolated from homogenized lung tissue or cell culture using the miRNeasy Micro Kit according to manufacturer's instructions (Qiagen, Venlo, Netherlands). Concentrations were determined using a NanoDrop® ND-1000 (NanoDrop Technologies, Erlangen, Germany) spectrophotometer. mRNA was transcribed to cDNA with the QuantiTect Rev. Transcription kit (Qiagen, Venlo, Netherlands) and PCR for specific genes was performed on a LightCycler 480 platform with Light Cycler 480 SYBR Green I Mastermix (Roche, Mannheim, Germany).

Each structure is given as a SMILES string.

Regarding `N[C@H](Cc1c[nH]c2ccccc12)C(=O)O` [D-tryptophan], in assay [1], the “immune activity of synthetic tryptophan isomers in the CCL17 bioassay” value was “dose dependent immune activity”. Further, in assay [2] (highly enriched DCs), the “IL-10 in DC cultures” value is given as “strongly induced”; the “LPS-induced IFN-g, IL-12 and IL-5 in DC cultures” value was “lowered”. Further, in assay [2] (with LPS 0.1 μg/ml), the “Ratio IL-5/IFN-g” value came to 0.018, the “Ratio IL-10/IL-12” value was 0.232, the IFN-g is 1129.50 pg/mL and the IL-5 came to 20.60 pg/mL. In assay [2] (with LPS 0.1 μg/ml), the IL-10 was 202.50 pg/mL and the IL-12 came out at 871.90 pg/mL. Further, in assay [2] (without LPS), the “Ratio IL-5/IFN-g” value is recorded as 0.470, the “Ratio IL-10/IL-12” value is given as 0.690, the IFN-g is 21.90 pg/mL and the IL-5 is 10.30 pg/mL. In assay [2] (without LPS), this compound registered an IL-10 of 56.90 pg/mL and an IL-12 of 82.50 pg/mL. Also, in assay [3] (6 days), the Th1 differentiation result is “remained unaffected” and the Th2 cell differentiation result was “reduced”. For the same compound, the lfng expression result in assay [3] (Th1 conditions) is reported as “remained unaffected”. Further, the “II-4, Gata3 expression and II-13 secretion” value in assay [3] (Th2 conditions) was “reduced”. Further, in assay [3] (Treg conditions), the “Foxp3 expression of Treg cells on mRNA and protein level” value is “increased”.
